One series deals with CYP. The following applies: cited from earlier work.
A short description of series [1]: in vivo. The following applies: female, C57BL/6J, mouse.
For series [2] the following is noted: human, in vivo; cited from earlier work.
Series [3] concerns M. tuberculosis H37Rv. The experiment in a line: Acute M. tuberculosis infection efficacy model in WT mice (lung CFU). In kind it is in vivo, Mycobacterium tuberculosis. The following applies: efavirenz co-administration.
Series [4] can be described thus: in vivo. The following applies: female, 8HUM, mouse.
Series [5] concerns M. tuberculosis H37Rv. As to the kind of experiment: Acute M. tuberculosis infection efficacy model in 8HUM (lung CFU). It is filed as in vivo, Mycobacterium tuberculosis.
In a further series the test system is CYP3A4. The experiment in a line: Hepatic CYP3A4 induction in 8HUM (Western blot). It is filed as in vivo, mouse. The following applies: efavirenz 20 and 40 mg/kg QD. Here is the method: Microsomal samples were adjusted to 1 mg/mL in LDS sample buffer (Life Technologies) for loading of 10 µg total protein into each well and electrophoresis through 10% acrylamide gels for 1 h at 150 V, followed by transfer onto nitrocellulose membranes. Primary antibodies used for immunoblotting were anti-CYP3A4 (458234, BD Biosciences) and anti-GRP78 loading control (ab21685, Abcam). Pooled HLM material was the same as used in microsomal incubations. Loading control is not provided for Fig. 1B, as the comparison is between human and murine samples.
(§1) Mouse hepatic microsomes were prepared by homogenization of freshly-isolated liver in ice-cold SET buffer (0.25 M sucrose, 5 mM EDTA, and 20 mM Tris-HCL, pH 7.4) to make a 10% (w/v) homogenate solution (9 ml SET buffer/1 g liver) using a Polytron PT-MR-2100 homogenizer. Liver homogenates were centrifuged at 2000 rpm (Sorvall RTH-250 rotor) for 10 minutes at 4 °C and the supernatant then centrifuged at 12000 rpm (Sorvall SS-34 rotor) for 20 minutes at 4 °C. The resulting supernatant was centrifuged at 29130 rpm (Sorvall TFT-45.6 rotor) for 90 minutes at 4 °C and the microsomal pellets were resuspended in ice-cold SET buffer for storage at –70 °C.
(§2) Primary hepatocytes were freshly prepared from 8HUM using a modified version of Charni-Natan and Goldstein’s STAR Protocol(1). Following termination by cervical dislocation and femoral vessel cut […]
For orientation: In western blotting, separated proteins are transferred to a membrane and probed.

The conditions of series [6]: microsomes.
The conditions of series [7]: mouse, in vivo.
The test system of the next series is M. tuberculosis. The following applies: cited from earlier work.
The conditions of series [8]: mouse, microsomes.
For series [9] the following is noted: human, 30 min, 5 µM, pH 7.4.
The conditions of series [10]: mouse, microsomes. This is another data set of the same source.
Series [11] is described as follows: DDI: pretomanid PK after CYP3A4 inducer pre-treatment in 8HUM. It is filed as in vivo, mouse (8HUM). Here is the method: (§3) With the exception of quinidine PK, female mice were used in all experiments. Dose levels and schedules were as detailed in SI Appendix. Serial blood samples (10 µL) were taken from the tail vein at the timepoints shown, diluted into 9 volumes of Milli-Q water, and stored at −20 °C prior to bioanalysis. Samples from mice infected with T. cruzi were snap-frozen in liquid nitrogen and thawed three times before storage at −20 °C until bioanalysis. Samples from mice infected with M. tuberculosis (15 µL) were mixed with two volumes of Milli-Q and stored at −70 °C until bioanalysis. All non-compartmental analysis, modeling, and simulation of PK was carried out using Phoenix WinNonlin version 8.3.1.5014 (Certara), as described in SI Appendix.
as §1, §2
(§4) canula (Merck) and the liver perfused using 30 mL Hanks Buffered Saline Solution (HBSS, -Ca 2+ -Mg2+, no phenol red, Gibco), containing 0.5 mM EDTA and 25 mM HEPES, running at a flow rate of 3 mL/min at approximately 37 °C. Subsequently, 10 mL HBSS digestion buffer (Ca2+ & Mg2+, no phenol red, Gibco), including 25 mM HEPES and 270 µL liberase (Merck) running at a flow rate of 3 mL/min and ~37 °C was then perfused. The final perfusion step utilised 30 mL HBSS digestion buffer containing 25 mM HEPES and 20 mg collagenase (Merck) at approximately 37 °C. The liver was excised, gall bladder removed and placed in a 10 cm petri dish where it was covered with 10 mL plating medium WME containing CM4000. The liver capsule was gently agitated with a glass rod and forceps to disperse the liver cells. Cells were then poured through a 100 µm nylon strainer (Falcon, Corning, NY, USA) into a 50 mL collection tube and topped up to 50 mL with plating medium at 37 °C. All solutions were perfused using a Miniplus peristaltic pump (Gilson, Middleton, WI, USA) and run through a 20 mL Intrafix Safeset bubble trap (Braun, Melsungen, Germany) to prevent potential blocking of vessels during perfusion. […]

The nature of series [12]: DDI: pretomanid PK after CYP3A4 inducer pre-treatment in WT mice. It is filed as in vivo, mouse. Here is the method: as §3, §1, §2, §4
A short description of series [13]: Oral pharmacokinetics in 8HUM mice. The following applies: female, mouse, whole blood.
The conditions of series [14]: human, in vivo; cited from earlier work. The source holds these as a separate data set.
Series [15] can be described thus: Oral pharmacokinetics in WT mice. The following applies: female, mouse, whole blood.
The conditions of series [16]: mouse, hepatocytes.
The nature of series [17]: in vivo. The following applies: female, 8HUM, mouse, po.
For series [18] the following is noted: mouse, microsomes. This is another data set of the same source.
Series [19] is described as follows: in vivo. The following applies: female, mouse, po.
For series [20] the following is noted: hepatocytes.
For series [21] the following is noted: mouse, hepatocytes. This is another data set of the same source.
The mark [22] stands for this setting: 8HUM pre-treated with efavirenz (40 mg/kg once daily for three days).
Where [23] appears, read: 8HUM pre-treated with rifampicin (2 mg/kg once, 24 hr prior).
The mark [24] stands for this setting: WT pre-treated with efavirenz (40 mg/kg once daily for three days).
The mark [25] stands for this setting: WT pre-treated with rifampicin (2 mg/kg once, 24 hr prior).

A word on the AUC(0-t): it is the area under the concentration-time curve up to a stated or last time point. As usually defined, the CL/F is clearance divided by bioavailability, as obtained after extravascular dosing.

In brackets after ≈: the same amount, converted by molar mass. Where two headings read alike, the source gives them in different places.

As to `COc1nc2ccc(Br)cc2cc1[C@@H](c1ccccc1)[C@@](O)(CCN(C)C)c1cccc2ccccc12` [Bedaquiline], the “CYP interaction: Substrate” value in the series with CYP is 3A4. The results for the AUC(0-t) in the series “in vivo [1]” and in the series “in vivo [4]” were 2930 ng·h/mL and 19100 ng·h/mL, respectively. Besides, the terminal half-life in series [2] is 5.5 mo. Also, the “decrease in efficacy of bedaquiline with efavirenz” value with M. tuberculosis H37Rv [3] is on record as 1.3 log CFU. For the same compound, in the series with M. tuberculosis H37Rv [5] (8HUM, efavirenz co-administration), the “impact of efavirenz on efficacy of bedaquiline” value is “no impact”.

With `O=C1Nc2ccc(Cl)cc2[C@@](C#CC2CC2)(C(F)(F)F)O1` [Efavirenz], in the series with CYP, the “CYP interaction: Inducer” value is reported as 3A4 and the “CYP interaction: Substrate” value was 2B6. Further, the “induction of hepatic CYP3A4” value with CYP3A4 is listed as “approximately threefold”. For the same compound, in series [6], the “CLint, Human” value is reported as 0.5 mL/min/g liver.

Take `CNCC[C@@](O)(c1cccc2ccccc12)[C@H](c1ccccc1)c1cc2cc(Br)ccc2nc1OC` [NDM-bedaquiline, N-desmethyl bedaquiline]: the “impact of efavirenz on PK” value in series [7] is “little impact”. In the series on M. tuberculosis, the “potency of metabolite relative to parent compound” value is “approximately fivefold less potent”.

In the case of `Cc1c(O)cccc1C(=O)N[C@@H](CSc1ccccc1)[C@H](O)CN1C[C@H]2CCCC[C@H]2C[C@H]1C(=O)NC(C)(C)C` [Nelfinavir], the “CYP interaction: Inhibitor” value with CYP is given as 3A4. The “CLint, WT” value in series [8] was found to be 50 mL/min/g liver. Further, the “CLint, Human” value in series [6] amounted to 50 mL/min/g liver. For the same compound, in series [9], the metabolites detected stood at 18.

With `O=[N+]([O-])c1cn2c(n1)OC[C@@H](OCc1ccc(OC(F)(F)F)cc1)C2` [Pretomanid], the “CYP interaction: Substrate” value in the series with CYP is recorded as 3A4. The “CLint, 8HUM” value in [10] was determined as 0.5 mL/min/g liver. The “decrease in AUC of pretomanid” value in [11] (setting [22]) is 54%; in series [11] (setting [23]), 51%; in [12] (setting [24]), 65%; in series [12] (setting [25]), 10%; in [14], 35%. In addition, the “decrease in Cmax of pretomanid” value in series [11] (setting [22]) is 14%; in [11] (setting [23]), 25%; in [12] (setting [24]), 31%; in series [12] (setting [25]) it was 6%; in series [14] it was 28%. Besides, in the series with M. tuberculosis, the minimum inhibitory concentration is 0.06 µg/mL (≈ 0.167 µM). The “CLint, WT” value in [8] worked out at 0.5 mL/min/g liver. In addition, the CL/F in [13] is 2.17 mL/min/kg; in series [15] it was 4.43 mL/min/kg. Moreover, in [6], the “CLint, Human” value is recorded as 0.5 mL/min/g liver. Also, in the series on M. tuberculosis H37Rv [5] (M. tuberculosis infection, once a day for 8 days), the “efficacy in 8HUM compared with WT (lung CFU)” value is recorded as “less effective in 8HUM”.

As for `CO[C@H]1/C=C/O[C@@]2(C)Oc3c(C)c(O)c4c(c3C2=O)C2=NC3(CCN(CC(C)C)CC3)NC2=C(NC(=O)/C(C)=C\C=C\[C@H](C)[C@H](O)[C@@H](C)[C@@H](O)[C@@H](C)[C@H](OC(C)=O)[C@@H]1C)C4=O` [Rifabutin], in the series on CYP, the “CYP interaction: Substrate” value is 3A4. Further, the “CLint, 8HUM” value in [16] is reported as 0.7 mL/min/g liver. Moreover, the CL/F in “in vivo [17]” was 4.03 mL/min/kg; in the series “in vivo [19]”, 24.8 mL/min/kg. Also, the “CLint, CypC4KO” value in series [18] stood at 0.5 mL/min/g liver. Moreover, the results for the “CLint, Human” value in [20] and in [6] were 1 mL/min/g liver and 1.1 mL/min/g liver, respectively. The “CLint, WT” value in [21] was determined as 0.5 mL/min/g liver.

The values are drawn from publication PMC10873626, “Acceleration of infectious disease drug discovery and development using a humanized model of drug metabolism” (Proceedings of the National Academy of Sciences of the …, 2024).
